Measurements as given in patent US9375395B2, “Compositions comprising an NFκB-inhibitor and a tropoelastin promoter” (JOHNSON & JOHNSON CONSUMER INC., priority 2009, dated 2016).

How the values were obtained:
NFκB = experiment: NFκB-INHIBITION TEST (NF-kB gene reporter luciferase, TNFα-stimulated FB293 cells); assay type: cell-based, human
Procedure: The NFκB-INHIBITION TEST is conducted in the following manner. FB293 cells, a stable transfected human epithelial cell line containing the gene reporter for NF-kB are used. They may be obtained from, e.g., Panomics (Fremont, Calif.). FB293 are plated at a density of 5×10^4 cells/mL in a suitable medium, e.g., Dulbecco's modified Eagle's medium (DMEM) supplemented with 10% fetal bovine serum (Invitrogen, San Diego, Calif.). The FB293 cells are stimulated with 100 ng/mL of Tumor Necrosis Factor-α (TNFα, available from Sigma-Aldrich of St Louis, Mo.) in the presence of the test sample. Separately, a control sample is tested wherein no test sample is applied. Following a 24-hour incubation at 37° C. with 5% CO2, cells are lysed with 40 μl of reporter lysis buffer (Promega, Madison, Wis.). A 20-μl aliquot of the lysate is assayed using a luciferase assay kit (Promega) and counted for 10 s in a Lmax luminometer (Molecular Devices, Sunnyvale, Calif.) with the data represented as the relative light unit/second. Percent NFκB Inhibition of the test sample is calculated as: NFκB Inhibition=[1−(Lsample/Lcontrol)]*100 where Lsample is the luminescence of the sample and Lcontrol is the luminescence of the control.
The NFκB-INHIBITION TEST described above was performed on test samples of Bay 11-7082 (Sigma-Aldrich, St. Louis, Mo.), Tetrahydrocurcuminoids CG (Sabinsa Corporation, Piscataway, N.J.), as well as various concentrations of 4-hexylresorcinol. The results are shown in Table 1, in which NF-kB Gene Reporter Activation (Luminescence, L) is reported for the test samples and a control sample. Percent NF-kB Inhibition is also reported.
The NFκB-INHIBITION TEST described above was performed on a series of substituted resorcinols each having a concentration of 10 ug/ml.

elastin promoter = experiment: TROPOELASTIN PROMOTER ASSAY (elastin promoter-luciferase reporter in H9C2 cells); assay type: cell-based, rat; details: 0.1 ug/ml on active basis; for Percent Change Over Vehicle: 24 h (Table 3)
Procedure: Suitable tropoelastin promoters may be determined, for example, using the TROPOELASTIN PROMOTER ASSAY. The TROPOELASTIN PROMOTER ASSAY is performed as follows. Rat cardiac myoblasts H9C2 (which may be purchased, for example from ATCC of Manassas, Va.) are used. Cultures are maintained in Dulbecco's modified Eagle's medium (DMEM, Invitrogen Life Technologies, Carlsbad, Calif.) supplemented with 10% fetal bovine serum, 2 mM glutamine, 100 units/ml penicillin, and 50 ug/ml streptomycin (Invitrogen Life Technologies, Carlsbad, Calif.). Cell cultures are transiently transfected with the elastin promoter-luciferase reporter construct (Elp2.2, a 2.2 kb elastin promoter fragment from nt −2267 to nt +2, driving the firefly luciferase gene, which may be obtained from Promega, Madison Wis.). DNA is prepared by Qiagen Maxi columns (Qiagen Valencia, Calif.). In all transfections, a construct with the thymidine kinase promoter and the Renilla luciferase reporter gene (pRL-TK, Promega, Madison Wis.) is included as an internal control. Typically, cells grown in 48-well plates are transfected with 0.45 ug total DNA per well using Lipofectamine 2000 (Invitrogen Life Technologies, Carlsbad, Calif.). One day after transfection, cells are treated with agents at indicated concentrations for approximately 24 hours before they are lysed for luciferase assays, using Dual-Luciferase Reporter System from Promega (Madison, Wis.), following manufacturer's protocol. The firefly luciferase activity is measured first (representing elastin promoter activity), followed by the renilla luciferase (internal control), using luminometer LMAX, from Molecular Devices (Sunnyvale, Calif.). The ratio of these two luciferase activities (RLU) is used to evaluate the Tropoelastin Promoter Activity. […]

[1] = 10 ug/ml, series of substituted resorcinols (Table 2)

CC1CCCC(O)CCCCCc2cc(O)cc(O)c2C(=O)O1 (stereo not drawn) [β-Zearalanol]
Percent NF-kB Inhibition (NFκB; [1]): 76.56%

C[C@H]1CCC[C@@H](O)CCC/C=C/c2cc(O)cc(O)c2C(=O)O1 [β-Zearalenol]
Percent NF-kB Inhibition (NFκB; [1]): 87.1%

CCCCCCCCCCCC1c2cc(c(O)cc2O)C(CCCCCCCCCCC)c2cc(c(O)cc2O)C(CCCCCCCCCCC)c2cc(c(O)cc2O)C(CCCCCCCCCCC)c2cc1c(O)cc2O (stereo not drawn) [C-Undecylcalix[4]-resorcinarene, C-Undecylcalix[4]-resorcinarene]
Percent NF-kB Inhibition (NFκB; [1]): 4.87%

CCCCCCc1ccc(O)cc1O [4-Hexylresorcinol]
Percent NF-kB Inhibition (NFκB; 1 ug/ml, TNFα 100 ng/ml stimulated FB293 cells, 24 h): 1.9% | Percent NF-kB Inhibition (NFκB; 5 ug/ml, TNFα 100 ng/ml stimulated FB293 cells, 24 h): 50.9% | Percent NF-kB Inhibition (NFκB; 10 ug/ml, TNFα 100 ng/ml stimulated FB293 cells, 24 h (Table 1)): 72.9% | Percent NF-kB Inhibition (NFκB; [1]): 92.4% | Percent NF-kB Inhibition (NFκB; 50 ug/ml, TNFα 100 ng/ml stimulated FB293 cells, 24 h): 91.4% | Percent Change Over Vehicle (elastin promoter): −12% | Percent Change Over Vehicle (elastin promoter; listed as 4-hexylresorcinol): −12% | Tropoelastin Promoter Activity (elastin promoter; 24 h, vehicle 1.36 ± 0.33 (Table 3)): 1.2 ± 0.12

CC1CCCC(=O)CCCCCc2cc(O)cc(O)c2C(=O)O1 (stereo not drawn) [Zearalanone]
Percent NF-kB Inhibition (NFκB; [1]): 50.95%
